Assay results from patent US20030087906A1, “NITROGEN SUBSTITUTED BIARYL PURINE DERIVATIVES AS POTENT ANTIPROLIFERATIVE AGENTS” (priority 2001, published 2003).

Key:
HS 578T = assay: NCI 60-cell line growth inhibition assay; format: cell-based; conditions: Homo sapiens; HS 578T (Breast)
MDA-MB-231/ATCC = assay: NCI 60-cell line growth inhibition assay; format: cell-based; conditions: Homo sapiens; MDA-MB-231/ATCC (Breast)
MDA-N = assay: NCI 60-cell line growth inhibition assay; format: cell-based; conditions: Homo sapiens; MDA-N (Breast)
NCI/ADR-RES = assay: NCI 60-cell line growth inhibition assay; format: cell-based; conditions: Homo sapiens; NCI/ADR-RES (Breast)
T-47D = assay: NCI 60-cell line growth inhibition assay; format: cell-based; conditions: Homo sapiens, T47D; T-47D (Breast)
SF-268 = assay: NCI 60-cell line growth inhibition assay; format: cell-based; conditions: Homo sapiens; SF-268 (CNS)
SF-539 = assay: NCI 60-cell line growth inhibition assay; format: cell-based; conditions: Homo sapiens; SF-539 (CNS)
SNB-19 = assay: NCI 60-cell line growth inhibition assay; format: cell-based; conditions: Homo sapiens; SNB-19 (CNS)
SNB-75 = assay: NCI 60-cell line growth inhibition assay; format: cell-based; conditions: Homo sapiens; SNB-75 (CNS)
COLO 205 = assay: NCI 60-cell line growth inhibition assay; format: cell-based; conditions: Homo sapiens; COLO 205 (Colon)
HCC-2998 = assay: NCI 60-cell line growth inhibition assay; format: cell-based; conditions: Homo sapiens; HCC-2998 (Colon)
HCT-116 = assay: NCI 60-cell line growth inhibition assay; format: cell-based; conditions: Homo sapiens; HCT-116 (Colon)
HT29 = assay: NCI 60-cell line growth inhibition assay; format: cell-based; conditions: Homo sapiens, HT-29; HT29 (Colon)
KM12 = assay: NCI 60-cell line growth inhibition assay; format: cell-based; conditions: Homo sapiens; KM12 (Colon)
CCRF-CEM = assay: NCI 60-cell line growth inhibition assay; format: cell-based; conditions: Homo sapiens; CCRF-CEM (Leukemia)
HL-60(TB) = assay: NCI 60-cell line growth inhibition assay; format: cell-based; conditions: Homo sapiens; HL-60(TB) (Leukemia)
RPMI-8226 = assay: NCI 60-cell line growth inhibition assay; format: cell-based; conditions: Homo sapiens; RPMI-8226 (Leukemia)
SR = assay: NCI 60-cell line growth inhibition assay; format: cell-based; conditions: Homo sapiens; SR (Leukemia)
MALME-3M = assay: NCI 60-cell line growth inhibition assay; format: cell-based; conditions: Homo sapiens; MALME-3M (Melanoma)
SK-MEL-2 = assay: NCI 60-cell line growth inhibition assay; format: cell-based; conditions: Homo sapiens; SK-MEL-2 (Melanoma)
SK-MEL-28 = assay: NCI 60-cell line growth inhibition assay; format: cell-based; conditions: Homo sapiens; SK-MEL-28 (Melanoma)
SK-MEL-5 = assay: NCI 60-cell line growth inhibition assay; format: cell-based; conditions: Homo sapiens; SK-MEL-5 (Melanoma)
UACC-257 = assay: NCI 60-cell line growth inhibition assay; format: cell-based; conditions: Homo sapiens; UACC-257 (Melanoma)
A549/ATCC = assay: NCI 60-cell line growth inhibition assay; format: cell-based; conditions: Homo sapiens; A549/ATCC (Non-Small Cell Lung)
HOP-62 = assay: NCI 60-cell line growth inhibition assay; format: cell-based; conditions: Homo sapiens; HOP-62 (Non-Small Cell Lung)
NCI-H226 = assay: NCI 60-cell line growth inhibition assay; format: cell-based; conditions: Homo sapiens; NCI-H226 (Non-Small Cell Lung)
NCI-H23 = assay: NCI 60-cell line growth inhibition assay; format: cell-based; conditions: Homo sapiens; NCI-H23 (Non-Small Cell Lung)
NCI-H460 = assay: NCI 60-cell line growth inhibition assay; format: cell-based; conditions: Homo sapiens; NCI-H460 (Non-Small Cell Lung)
NCI-H522 = assay: NCI 60-cell line growth inhibition assay; format: cell-based; conditions: Homo sapiens; NCI-H522 (Non-Small Cell Lung)
OVCAR-3 = assay: NCI 60-cell line growth inhibition assay; format: cell-based; conditions: Homo sapiens; OVCAR-3 (Ovarian)
OVCAR-4 = assay: NCI 60-cell line growth inhibition assay; format: cell-based; conditions: Homo sapiens; OVCAR-4 (Ovarian)
OVCAR-5 = assay: NCI 60-cell line growth inhibition assay; format: cell-based; conditions: Homo sapiens; OVCAR-5 (Ovarian)
SK-OV-3 = assay: NCI 60-cell line growth inhibition assay; format: cell-based; conditions: Homo sapiens; SK-OV-3 (Ovarian)
786-0 = assay: NCI 60-cell line growth inhibition assay; format: cell-based; conditions: Homo sapiens; 786-0 (Renal)
A498 = assay: NCI 60-cell line growth inhibition assay; format: cell-based; conditions: Homo sapiens; A498 (Renal)
CAKI-1 = assay: NCI 60-cell line growth inhibition assay; format: cell-based; conditions: Homo sapiens; CAKI-1 (Renal)
RXF 393 = assay: NCI 60-cell line growth inhibition assay; format: cell-based; conditions: Homo sapiens; RXF 393 (Renal)
SN12C = assay: NCI 60-cell line growth inhibition assay; format: cell-based; conditions: Homo sapiens; SN12C (Renal)
TK-10 = assay: NCI 60-cell line growth inhibition assay; format: cell-based; conditions: Homo sapiens; TK-10 (Renal)
[1] = system: Tumor Cells in Hollow Fibers; assay: NCI Hollow Fiber Assay (in vivo evaluation)

Q: Which GI50 (HS 578T) does the source give for `CC(=O)N[C@H]1CC[C@H](Nc2nc(NCc3ccc(-c4ccccn4)cc3)c3ncn(C(C)C)c3n2)CC1` [Compound 79] here?
A: Its GI50 is under 0.01 µM.

Q: What about the GI50 (MDA-MB-231/ATCC) of the same compound?
A: The GI50 was under 0.01 µM.

Q: What about the GI50 (MDA-N) of the same compound?
A: Its GI50 is under 0.01 µM.

Q: And the GI50 (NCI/ADR-RES)?
A: Its GI50 is 0.86 µM.

Q: And the GI50 (T-47D)?
A: Its GI50 is under 0.01 µM.

Q: What about the GI50 (SF-268) of the same compound?
A: Its GI50 is under 0.01 µM.

Q: What about the GI50 (SF-539) of the same compound?
A: Its GI50 is under 0.01 µM.

Q: What about the GI50 (SNB-19) of the same compound?
A: The GI50 was under 0.01 µM.

Q: And the GI50 (SNB-75)?
A: Its GI50 is under 0.01 µM.

Q: What about the GI50 (COLO 205) of the same compound?
A: The GI50 was under 0.01 µM.

Q: And the GI50 (HCC-2998)?
A: Its GI50 is under 0.01 µM.

Q: What about the GI50 (HCT-116) of the same compound?
A: The GI50 was under 0.01 µM.

Q: And the GI50 (HT29)?
A: Its GI50 is under 0.01 µM.

Q: And the GI50 (KM12)?
A: The GI50 was under 0.01 µM.

Q: What about the GI50 (CCRF-CEM) of the same compound?
A: Its GI50 is under 0.01 µM.

Q: What about the GI50 (HL-60(TB)) of the same compound?
A: The GI50 was under 0.01 µM.

Q: What about the GI50 (RPMI-8226) of the same compound?
A: Its GI50 is under 0.01 µM.

Q: What about the GI50 (SR) of the same compound?
A: Its GI50 is under 0.01 µM.

Q: What about the GI50 (MALME-3M) of the same compound?
A: Its GI50 is under 0.01 µM.

Q: What about the GI50 (SK-MEL-2) of the same compound?
A: Its GI50 is under 0.01 µM.

Q: And the GI50 (SK-MEL-28)?
A: The GI50 was under 0.01 µM.

Q: What about the GI50 (SK-MEL-5) of the same compound?
A: Its GI50 is under 0.01 µM.

Q: And the GI50 (UACC-257)?
A: Its GI50 is under 0.01 µM.

Q: And the GI50 (A549/ATCC)?
A: The GI50 was under 0.01 µM.

Q: What about the GI50 (HOP-62) of the same compound?
A: The GI50 was under 0.01 µM.

Q: What about the GI50 (NCI-H226) of the same compound?
A: The GI50 was under 0.01 µM.

Q: What about the GI50 (NCI-H23) of the same compound?
A: The GI50 was under 0.01 µM.

Q: And the GI50 (NCI-H460)?
A: Its GI50 is under 0.01 µM.

Q: And the GI50 (NCI-H522)?
A: The GI50 was under 0.01 µM.

Q: And the GI50 (OVCAR-3)?
A: The GI50 was under 0.01 µM.

Q: And the GI50 (OVCAR-4)?
A: The GI50 was under 0.01 µM.

Q: What about the GI50 (OVCAR-5) of the same compound?
A: The GI50 was under 0.01 µM.

Q: And the GI50 (SK-OV-3)?
A: Its GI50 is under 0.01 µM.

Q: What about the GI50 (786-0) of the same compound?
A: The GI50 was under 0.01 µM.

Q: What about the GI50 (A498) of the same compound?
A: Its GI50 is under 0.01 µM.

Q: And the GI50 (CAKI-1)?
A: Its GI50 is under 0.01 µM.

Q: And the GI50 (RXF 393)?
A: Its GI50 is under 0.01 µM.

Q: And the GI50 (SN12C)?
A: Its GI50 is under 0.01 µM.

Q: And the GI50 (TK-10)?
A: Its GI50 is under 0.01 µM.

Q: What about the “IP Score” value ([1]; IP fibers) of the same compound?
A: The value was 26.

Q: What about the SC score ([1]; SC fibers) of the same compound?
A: The SC score was 6.

Q: Which results are given for `Cn1cnc2c(NCc3ccccc3)nc(NCCO)nc21` [Olomoucine, reference compound]?
A: GI50 (HS 578T): 63 µM; GI50 (MDA-MB-231/ATCC): 100 µM; GI50 (MDA-N): 79 µM; GI50 (NCI/ADR-RES): 100 µM; GI50 (T-47D): 63 µM; GI50 (SF-268): 50 µM; GI50 (SF-539): 32 µM; GI50 (SNB-19): 63 µM; GI50 (SNB-75): 25 µM; GI50 (COLO 205): 32 µM; GI50 (HCC-2998): 63 µM; GI50 (HCT-116): 40 µM; GI50 (HT29): 63 µM; GI50 (KM12): 40 µM; GI50 (CCRF-CEM): 40 µM; GI50 (HL-60(TB)): 40 µM; GI50 (RPMI-8226): 50 µM; GI50 (SR): 25 µM; GI50 (MALME-3M): 100 µM; GI50 (SK-MEL-2): 100 µM; GI50 (SK-MEL-28): 50 µM; GI50 (SK-MEL-5): 40 µM; GI50 (UACC-257): 79 µM; GI50 (A549/ATCC): 50 µM; GI50 (HOP-62): 32 µM; GI50 (NCI-H226): 50 µM; GI50 (NCI-H23): 79 µM; GI50 (NCI-H460): 63 µM; GI50 (NCI-H522): 40 µM; GI50 (OVCAR-3): 79 µM; GI50 (OVCAR-4): 100 µM; GI50 (OVCAR-5): 40 µM; GI50 (SK-OV-3): 100 µM; GI50 (786-0): 63 µM; GI50 (A498): 32 µM; GI50 (CAKI-1): 32 µM; GI50 (RXF 393): 20 µM; GI50 (SN12C): 100 µM; GI50 (TK-10): 63 µM
